Laboratory results taken from patent US20230233569A1 (Revolution Medicines, Inc., priority 2020, published 2023).
Where two headings read alike, the source gives them in different places.

Legend:
Experiment in all cases: Ras-Raf disruption / FRET / MOA assay (BRAF RBD)
Assay type in all cases: biochemical
KRAS G12D = KRAS G12D (Homo sapiens, UniProt P01116+P62937, G12D); conditions: with Cyclophilin A
Procedure, shortened: (§1)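 Compound-induced Ras–Cyclophilin A ternary complex disrupting BRAF RBD binding, read as IC50 from reduced TR-FRET ratio relative to DMSO. Final: Ras-GMPPNP 12.5 nM, BRAF RBD 50 nM, Cyclophilin A 25 μM, top compound 30 μM (3-fold, 10 points); 3 h at 25 °C, then 1.5 h with detection antibodies.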

KRAS G12S = KRAS G12S (Homo sapiens, UniProt P01116+P62937, G12S); conditions: with Cyclophilin A
Procedure, shortened: as §1

KRAS G12V = KRAS G12V (Homo sapiens, UniProt P01116+P62937, G12V); conditions: with Cyclophilin A
Procedure, shortened: as §1

KRAS G13C = KRAS G13C (Homo sapiens, UniProt P01116+P62937, G13C); conditions: with Cyclophilin A
Procedure, shortened: as §1

KRAS G13D = KRAS G13D (Homo sapiens, UniProt P01116+P62937, G13D); conditions: with Cyclophilin A
Procedure, shortened: as §1

KRAS Q61H = KRAS Q61H (Homo sapiens, UniProt P01116+P62937, Q61H)
Procedure, shortened: as §1

KRAS WT = KRAS WT (Homo sapiens, UniProt P01116+P62937); conditions: with Cyclophilin A
Procedure, shortened: as §1

NRAS G12C = NRAS G12C (Homo sapiens, UniProt P01111+P62937, G12C)
Procedure, shortened: as §1

NRAS Q61K = NRAS Q61K (Homo sapiens, UniProt P01111+P62937, Q61K)
Procedure, shortened: as §1

NRAS Q61R = NRAS Q61R (Homo sapiens, UniProt P01111+P62937, Q61R)
Procedure, shortened: as §1

NRAS WT = NRAS WT (Homo sapiens, UniProt P01111+P62937)
Procedure, shortened: as §1

KRAS G12C = KRAS G12C (Homo sapiens, UniProt P01116+P62937, G12C); conditions: with Cyclophilin A
Procedure, shortened: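 TR-FRET read-out after 1.5 h with anti-His Eu-W1024 (10 nM) and anti-GST APC (50 nM), following 3 h at 25 °C of compound (top 30 μM, 3-fold, 10 points) with 25 μM Cyclophilin A, 12.5 nM GMPPNP-loaded K-Ras G12C and 50 nM BRAF RBD; IC50 reported.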

[1] = Ras-Raf disruption, read-out: KRAS G12D FRET data IC50
[2] = Ras-Raf disruption, read-out: KRAS G12S FRET data IC50
[3] = Ras-Raf disruption, read-out: KRAS G12V FRET data IC50
[4] = Ras-Raf disruption, read-out: KRAS G13C FRET data IC50
[5] = Ras-Raf disruption, read-out: KRAS G13D FRET data IC50
[6] = KRAS Q61H, read-out: KRAS Q61H FRET data IC50
[7] = Ras-Raf disruption, read-out: KRAS WT FRET data IC50
[8] = NRAS G12C, read-out: NRAS G12C FRET data IC50
[9] = NRAS Q61K, read-out: NRAS Q61K FRET data IC50
[10] = NRAS Q61R, read-out: NRAS Q61R FRET data IC50
[11] = NRAS WT, read-out: NRAS WT FRET data IC50
[12] = Ras-Raf disruption, read-out: KRAS G12C FRET data IC50
[13] = KRAS G12D FRET data IC50, Ras-Raf disruption
[14] = KRAS G12S FRET data IC50, Ras-Raf disruption
[15] = KRAS G12V FRET data IC50, Ras-Raf disruption
[16] = KRAS G13C FRET data IC50, Ras-Raf disruption
[17] = KRAS G13D FRET data IC50, Ras-Raf disruption
[18] = KRAS WT FRET data IC50, Ras-Raf disruption
[19] = NRAS G12C FRET data IC50, NRAS G12C
[20] = KRAS G12C FRET data IC50, Ras-Raf disruption

KRAS G12D, sequence (P01116 1-169 isoform P01116-2 G12D limits assumed): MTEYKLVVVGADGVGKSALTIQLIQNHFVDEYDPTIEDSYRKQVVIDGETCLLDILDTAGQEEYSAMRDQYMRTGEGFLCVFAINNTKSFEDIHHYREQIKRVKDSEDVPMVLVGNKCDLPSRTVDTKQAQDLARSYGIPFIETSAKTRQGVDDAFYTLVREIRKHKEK
KRAS G12D, sequence (P62937 whole entry): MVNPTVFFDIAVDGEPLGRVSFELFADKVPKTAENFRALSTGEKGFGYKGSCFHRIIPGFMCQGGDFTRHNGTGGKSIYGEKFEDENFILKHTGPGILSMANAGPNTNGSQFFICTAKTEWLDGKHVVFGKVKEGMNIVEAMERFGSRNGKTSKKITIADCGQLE
KRAS G12S, sequence (P01116 1-169 isoform P01116-2 G12S limits assumed): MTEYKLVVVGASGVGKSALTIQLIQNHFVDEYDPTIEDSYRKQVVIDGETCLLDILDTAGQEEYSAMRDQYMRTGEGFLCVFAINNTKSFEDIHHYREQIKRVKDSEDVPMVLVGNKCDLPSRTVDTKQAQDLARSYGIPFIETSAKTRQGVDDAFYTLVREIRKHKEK
KRAS G12S, sequence (P62937 whole entry): as the sequence (P62937 whole entry) above
KRAS G13C, sequence (P01116 1-169 isoform P01116-2 G13C limits assumed): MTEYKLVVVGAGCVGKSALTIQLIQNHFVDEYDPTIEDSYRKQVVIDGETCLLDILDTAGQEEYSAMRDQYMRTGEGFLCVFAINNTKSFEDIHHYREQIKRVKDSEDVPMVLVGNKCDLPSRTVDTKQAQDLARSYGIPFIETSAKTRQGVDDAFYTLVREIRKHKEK
KRAS G13C, sequence (P62937 whole entry): as the sequence (P62937 whole entry) above
KRAS Q61H, sequence (P01116 1-169 isoform P01116-2 Q61H limits assumed): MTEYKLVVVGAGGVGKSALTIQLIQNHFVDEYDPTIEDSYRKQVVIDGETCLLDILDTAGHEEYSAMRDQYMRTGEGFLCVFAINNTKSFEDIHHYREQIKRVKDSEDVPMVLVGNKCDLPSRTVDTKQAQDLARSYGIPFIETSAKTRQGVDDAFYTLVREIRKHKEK
KRAS Q61H, sequence (P62937 whole entry): as the sequence (P62937 whole entry) above
KRAS WT, sequence (P01116 1-169 isoform P01116-2 limits assumed): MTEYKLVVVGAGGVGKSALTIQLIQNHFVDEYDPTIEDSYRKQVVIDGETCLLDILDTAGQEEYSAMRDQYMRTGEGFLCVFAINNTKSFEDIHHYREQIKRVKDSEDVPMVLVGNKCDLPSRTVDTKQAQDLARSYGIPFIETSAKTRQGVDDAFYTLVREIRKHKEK
KRAS WT, sequence (P62937 whole entry): as the sequence (P62937 whole entry) above
NRAS Q61R, sequence (P01111 whole entry Q61R): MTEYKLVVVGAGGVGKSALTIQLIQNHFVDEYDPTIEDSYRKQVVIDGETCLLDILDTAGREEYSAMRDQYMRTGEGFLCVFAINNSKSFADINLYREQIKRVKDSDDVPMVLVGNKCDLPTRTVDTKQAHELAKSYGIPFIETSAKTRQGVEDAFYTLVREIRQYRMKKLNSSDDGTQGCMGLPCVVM
NRAS Q61R, sequence (P62937 whole entry): as the sequence (P62937 whole entry) above
NRAS WT, sequence (P01111 whole entry): as the sequence (P01111 whole entry Q61R) above, with R61Q counted along it
NRAS WT, sequence (P62937 whole entry): as the sequence (P62937 whole entry) above
KRAS G12V, sequence (P01116 1-169 isoform P01116-2 G12V limits assumed): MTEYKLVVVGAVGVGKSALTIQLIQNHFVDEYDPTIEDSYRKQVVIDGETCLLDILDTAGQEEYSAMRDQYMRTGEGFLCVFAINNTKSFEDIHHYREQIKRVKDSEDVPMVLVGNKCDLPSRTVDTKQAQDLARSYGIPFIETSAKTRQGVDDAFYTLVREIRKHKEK
KRAS G12V, sequence (P62937 whole entry): as the sequence (P62937 whole entry) above
KRAS G13D, sequence (P01116 1-169 isoform P01116-2 G13D limits assumed): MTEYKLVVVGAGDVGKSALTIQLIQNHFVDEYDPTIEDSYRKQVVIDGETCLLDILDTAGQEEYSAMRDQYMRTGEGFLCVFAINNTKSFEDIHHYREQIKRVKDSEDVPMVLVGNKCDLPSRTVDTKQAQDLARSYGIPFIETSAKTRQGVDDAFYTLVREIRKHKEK
KRAS G13D, sequence (P62937 whole entry): as the sequence (P62937 whole entry) above
NRAS Q61K, sequence (P01111 whole entry Q61K): as the sequence (P01111 whole entry Q61R) above, with R61K counted along it
NRAS Q61K, sequence (P62937 whole entry): as the sequence (P62937 whole entry) above
KRAS G12C, sequence (P01116 1-169 isoform P01116-2 G12C limits assumed): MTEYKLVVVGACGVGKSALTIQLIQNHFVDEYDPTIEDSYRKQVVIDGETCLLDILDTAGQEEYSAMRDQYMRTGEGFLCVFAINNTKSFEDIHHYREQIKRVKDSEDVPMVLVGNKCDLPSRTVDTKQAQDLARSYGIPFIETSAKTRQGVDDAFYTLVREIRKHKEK
KRAS G12C, sequence (P62937 whole entry): as the sequence (P62937 whole entry) above
NRAS G12C, sequence (P01111 whole entry G12C): as the sequence (P01111 whole entry Q61R) above, with G12C, R61Q counted along it
NRAS G12C, sequence (P62937 whole entry): as the sequence (P62937 whole entry) above

SMILES	IC50 (KRAS G12D; [1])	IC50 (KRAS G12S; [2])	IC50 (KRAS G12V; [3])	IC50 (KRAS G13C; [4])	IC50 (KRAS G13D; [5])	IC50 (KRAS Q61H; [6])	IC50 (KRAS WT; [7])	IC50 (NRAS G12C; [8])	IC50 (NRAS Q61K; [9])	IC50 (NRAS Q61R; [10])	IC50 (NRAS WT; [11])	IC50 (KRAS G12C; [12])	other results
CCn1c(-c2cccnc2[C@H](C)OC)c2c3cc(ccc31)-c1cc(O)cc(c1)C[C@H](NC(=O)[C@H](C(C)C)N(C)C(=O)[C@H]1CCCN(C(=O)[C@@H]3CN3)C1)C(=O)N1CCC[C@H](N1)C(=O)OCC(C)(C)C2 [Example 236]	100 to 1000 nM	100 to 1000 nM	100 to 1000 nM	100 to 1000 nM	100 to 1000 nM	100 to 1000 nM	100 to 1000 nM	10 to 100 nM	1000 to 10000 nM	1000 to 10000 nM	100 to 1000 nM	10 to 100 nM	–
CCn1c(-c2cccnc2[C@H](C)OC)c2c3cc(ccc31)-c1cc(O)cc(c1)C[C@H](NC(=O)[C@H](C(C)C)N(C)C(=O)[C@H]1C[C@@H]3N[C@@H]3C1)C(=O)N1CCC[C@H](N1)C(=O)OCC(C)(C)C2 (atropisomer, axis not shown) [Example 286]	100 to 1000 nM	100 to 1000 nM	100 to 1000 nM	10 to 100 nM	10 to 100 nM	10 to 100 nM	100 to 1000 nM	100 to 1000 nM	100 to 1000 nM	100 to 1000 nM	100 to 1000 nM	100 to 1000 nM	–
CCn1c(-c2cc(C3CCN(C)CC3)cnc2[C@H](C)OC)c2c3cc(ccc31)-c1cc(O)cc(c1)C[C@H](NC(=O)[C@H](C1CCCC1)N(C)C(=O)CN(C)C(=O)[C@H]1CN1)C(=O)N1CCC[C@H](N1)C(=O)OCC(C)(C)C2 [Example 230]	–	–	–	–	–	–	–	–	–	–	–	–	IC50 (KRAS G12D; [13]): 10 to 100 nM; IC50 (KRAS G12S; [14]): 10 to 100 nM; IC50 (KRAS G12V; [15]): 10 to 100 nM; IC50 (KRAS G13C; [16]): < 10 nM; IC50 (KRAS G13D; [17]): 10 to 100 nM; IC50 (KRAS Q61H): < 10 nM; IC50 (KRAS WT; [18]): 10 to 100 nM; IC50 (NRAS G12C; [19]): < 10 nM; IC50 (NRAS Q61K): 100 to 1000 nM; IC50 (NRAS Q61R): 10 to 100 nM; IC50 (NRAS WT): 10 to 100 nM; IC50 (KRAS G12C; [20]): < 10 nM
CCn1c(-c2cccnc2[C@H](C)OC)c2c3cc(ccc31)-c1cc(O)cc(c1)C[C@H](NC(=O)[C@H](C(C)C)N(C)C(=O)C13CC(CN1C(=O)[C@@H]1CN1)C3)C(=O)N1CCC[C@H](N1)C(=O)OCC(C)(C)C2 [Example 163]	–	–	–	–	–	–	–	–	–	–	–	–	IC50 (KRAS G12D; [13]): 100 to 1000 nM; IC50 (KRAS G12S; [14]): 100 to 1000 nM; IC50 (KRAS G12V; [15]): 100 to 1000 nM; IC50 (KRAS G13C; [16]): 100 to 1000 nM; IC50 (KRAS G13D; [17]): 100 to 1000 nM; IC50 (KRAS Q61H): 10 to 100 nM; IC50 (KRAS WT; [18]): 100 to 1000 nM; IC50 (NRAS G12C; [19]): 100 to 1000 nM; IC50 (NRAS Q61K): 100 to 1000 nM; IC50 (NRAS Q61R): 100 to 1000 nM; IC50 (NRAS WT): 100 to 1000 nM; IC50 (KRAS G12C; [20]): 100 to 1000 nM
CCn1c(-c2cccnc2[C@H](C)OC)c2c3cc(ccc31)-c1cc(O)cc(c1)C[C@H](NC(=O)[C@H](C(C)C)N1CC[C@]3(CCN(C(=O)[C@@H]4N[C@@H]4C4CC4)C3)C1=O)C(=O)N1CCC[C@H](N1)C(=O)OCC(C)(C)C2 [Example 305]	< 10 nM	10 to 100 nM	10 to 100 nM	10 to 100 nM	100 to 1000 nM	10 to 100 nM	10 to 100 nM	10 to 100 nM	100 to 1000 nM	100 to 1000 nM	10 to 100 nM	10 to 100 nM	–
CCn1c(-c2cccnc2[C@H](C)OC)c2c3cc(ccc31)-c1cc(O)cc(c1)C[C@H](NC(=O)[C@@H](COC1CN(C(=O)[C@H]3CN3)C1)C(C)C)C(=O)N1CCC[C@H](N1)C(=O)OCC(C)(C)C2 [Example 312]	1000 to 10000 nM	1000 to 10000 nM	1000 to 10000 nM	100 to 1000 nM	1000 to 10000 nM	100 to 1000 nM	100 to 1000 nM	< 10 nM	1000 to 10000 nM	1000 to 10000 nM	100 to 1000 nM	< 10 nM	–
CCn1c(-c2cccnc2[C@H](C)OC)c2c3cc(ccc31)-c1cc(O)cc(c1)C[C@H](NC(=O)[C@H](C1CCCC1)N(C)C(=O)CN(C)C(=O)[C@H]1[C@@H](C3CC3)N1CCCOC)C(=O)N1CCC[C@H](N1)C(=O)OCC(C)(C)C2 (stereo partly drawn) [Example 317]	–	–	–	–	–	–	–	–	–	–	–	–	IC50 (KRAS G12D; [13]): 100 to 1000 nM; IC50 (KRAS G12S; [14]): 10 to 100 nM; IC50 (KRAS G12V; [15]): 10 to 100 nM; IC50 (KRAS G13C; [16]): 10 to 100 nM; IC50 (KRAS G13D; [17]): 100 to 1000 nM; IC50 (KRAS Q61H): 10 to 100 nM; IC50 (KRAS WT; [18]): 10 to 100 nM; IC50 (NRAS G12C; [19]): 10 to 100 nM; IC50 (NRAS Q61K): 100 to 1000 nM; IC50 (NRAS Q61R): 100 to 1000 nM; IC50 (NRAS WT): 10 to 100 nM; IC50 (KRAS G12C; [20]): 10 to 100 nM
CCn1c(-c2cccnc2[C@H](C)OC)c2c3cc(ccc31)-c1cc(O)cc(c1)C[C@H](NC(=O)[C@H](C(C)C)N(C)C(=O)[C@@H]1CCN(C(=O)[C@H]3CN3)C1)C(=O)N1CCC[C@H](N1)C(=O)OCC(C)(C)C2 (atropisomer, axis not shown) [Example 186]	10 to 100 nM	10 to 100 nM	10 to 100 nM	10 to 100 nM	10 to 100 nM	10 to 100 nM	10 to 100 nM	< 10 nM	100 to 1000 nM	100 to 1000 nM	10 to 100 nM	< 10 nM	–
CCn1c(-c2cccnc2[C@H](C)OC)c2c3cc(ccc31)-c1csc(n1)C[C@H](NC(=O)[C@H](C(C)C)N(C)C(=O)N(C)CCN(C)C(=O)[C@H]1CN1)C(=O)N1CCC[C@H](N1)C(=O)OCC(C)(C)C2 (atropisomer, axis not shown) [Example 216]	100 to 1000 nM	100 to 1000 nM	100 to 1000 nM	100 to 1000 nM	100 to 1000 nM	10 to 100 nM	100 to 1000 nM	10 to 100 nM	10 to 100 nM	100 to 1000 nM	100 to 1000 nM	10 to 100 nM	–
CCn1c(-c2cccnc2[C@H](C)OC)c2c3cc(ccc31)-c1csc(n1)C[C@H](NC(=O)[C@H](C(C)C)N(C)C(=O)N1CC(N(C)C(=O)[C@@H]3CN3)C1)C(=O)N1CCC[C@H](N1)C(=O)OCC(C)(C)C2 (atropisomer, axis not shown) [Example 219]	1000 to 10000 nM	100 to 1000 nM	100 to 1000 nM	100 to 1000 nM	100 to 1000 nM	100 to 1000 nM	100 to 1000 nM	100 to 1000 nM	10 to 100 nM	100 to 1000 nM	100 to 1000 nM	100 to 1000 nM	–
CCn1c(-c2cccnc2[C@H](C)OC)c2c3cc(ccc31)-c1cc(O)cc(c1)C[C@H](NC(=O)[C@H](C(C)C)N(C)C(=O)[C@H]1CCCCN(C(=O)[C@H]3CN3)C1)C(=O)N1CCC[C@H](N1)C(=O)OCC(C)(C)C2 (atropisomer, axis not shown) [Example 247]	1000 to 10000 nM	100 to 1000 nM	100 to 1000 nM	100 to 1000 nM	100 to 1000 nM	100 to 1000 nM	100 to 1000 nM	10 to 100 nM	1000 to 10000 nM	1000 to 10000 nM	100 to 1000 nM	10 to 100 nM	–
CCn1c(-c2cccnc2[C@H](C)OC)c2c3cc(ccc31)-c1csc(n1)C[C@H](NC(=O)[C@H](C(C)C)N(C)C(=O)N1CCN(C(=O)[C@H]3CN3)[C@H](C)C1)C(=O)N1CCC[C@H](N1)C(=O)OCC(C)(C)C2 [Example 299]	100 to 1000 nM	100 to 1000 nM	100 to 1000 nM	100 to 1000 nM	100 to 1000 nM	10 to 100 nM	100 to 1000 nM	10 to 100 nM	10 to 100 nM	100 to 1000 nM	100 to 1000 nM	10 to 100 nM	–
